In US20250288567A1, “PHARMACEUTICAL COMPOSITION FOR TREATING PRESBYOPIA” (Sight Health Hong Kong Biotechnology Co., Limited, priority 2024, published 2025):
Values joined by “and” are separate entries in the source; they are usually repeats but may differ in a detail not shown here. Identical values can stand only once.

Tests used:
presbyopia patients [1] = assay: Visual acuity before and after treatment with Huperzine A, TRAC1 and their combination (three patients); assay type: in vivo, human; parameters: scale not given here
Method: This hypothesis is tested by using 0.05%-0.3% Huperzine A and 0.05%-0.3% TRAC1. Three patients are treated with each drug, as well as the combination of both drugs.

presbyopia patients [2] = assay: Non-randomized clinical case study of Huperzine A eye drops: uncorrected near visual acuity (UNVA40, UNVA66) before and 30 minutes after; assay type: in vivo, human
Method: (§1) A non-randomized clinical case study involving 40 eyes of 20 presbyopia patients with uncorrected distance visual acuity (UDVA) of 0.4-1.0 and uncorrected near visual acuity (UNVA) of less than Jaeger1, aged 33-70 years is conducted. The patients are randomly divided into 3 groups, using eye drops with concentration of Huperzine A ranging from 0.1%-0.3% for clinical trials. Data are collected on changes in visual acuity, including UDVA, UNVA40, UNVA66, pupil diameter changes, and non-contact intraocular pressure, before and 30 minutes after Huperzine A eye drops. The data are grouped according to drug concentration and age and are analyzed. The discomfort symptoms appeared half an hour after using the eye drops are recorded, and the time when the relevant symptoms disappeared is obtained during the telephone interview in the following 3 days. A detailed description of the case study is further illustrated below.
The clinical study of the present invention is conducted in March 2022 at a university hospital. Individuals over the age of 30 who feel their near vision has decreased are recruited and voluntarily participate in the test through a long-term open recruitment process. Inclusion criteria include best corrected distance visual acuity of 1.0, 40 cm reading visual acuity (UNVA40) or 66 cm computer visual acuity (UNVA66) lower than the Jaeger score J1, normal intraocular pressure, no history of retinal-related medical conditions, good general health, absence of systemic symptoms, and no rheumatic or systemic immune diseases.
Participants first complete a health declaration questionnaire with assistance from medical staff. They then measure their blood pressure and heart rate before undergoing computer optometry, as well as examinations for best corrected distance visual acuity and uncorrected distance visual acuity. They use the Jaeger score table to assess uncorrected reading visual acuity at 40 cm (UNVA40) and 66 cm (UNVA66) for computer visual acuity. Additionally, they have non-contact intraocular pressure measurements, pupil diameter assessments under room lighting, and a slit lamp examination by an experienced clinical ophthalmologist to rule out ocular diseases. Fundus photography is also performed.
Participants who meet the screening criteria are randomly divided into […]. One drop of 0.1%-0.3% Huperzine A eye drops is administered in each eye. After 30 minutes, the best corrected distance visual acuity, uncorrected distance visual acuity at 40 cm (UNVA40), and 66 cm computer visual acuity (UNVA66) are measured again, along with non-contact intraocular pressure and pupil diameter under room lighting.
The drug used in this present test is Huperzine A at a range of 0.1%-0.3% concentration, using standard ophthalmic dropper bottles, each yielding 40 μL drops and each drop effectively dispenses 0.1%-0.3%.
The collected data are organized so that J1+ is recorded as 0 on the Jaeger scale, J1 as 1, J2 as 2, and so forth.
The patients are grouped by age: 40 years old or below (2 people, 4 eyes), 41-50 years old (9 people, 18 eyes), 51-60 years old (6 people, 12 eyes), 61-70 years old (2 people, 4 eyes), and over 70 years old (1 people, 2 eyes).

[3] = system: patients with astigmatism (UDVA less than 0.8); assay: Uncorrected distance visual acuity (UDVA) of eyes with astigmatism after Huperzine A eye drops; assay type: in vivo, human; conditions: 2 patients, 4 eyes with astigmatism
Method: as §1
Participants first complete a health declaration questionnaire with assistance from medical staff. They then measure their blood pressure and heart rate before undergoing computer optometry, as well as examinations for best corrected distance visual acuity and uncorrected distance visual acuity. They use the Jaeger score table to assess uncorrected reading visual acuity at 40 cm (UNVA40) and 66 cm (UNVA66) for computer visual acuity. […]

presbyopia patients [4] = assay: Side effects reported by patients after Huperzine A eye drops; conditions: human, in vivo
Method: as §1
The duration of these side effects varies from 2 to 5 hours and gradually relieves over time. Additionally, some patients report an increase in tear secretion after using the eye drops.

[5] = Patient 1, Right eye (OD), Jaeger score, 0.05%-0.3%
[6] = Group 1, 40 years old or below, 2 people 4 eyes
[7] = Group 2, 41-50 years old, 9 people 18 eyes
[8] = Group 3, 51-60 years old, 6 people 12 eyes
[9] = Group 4, 61-70 years old, 2 people 4 eyes
[10] = Group 5, over 70 years old, 1 person 2 eyes
[11] = all patients, 20 patients 40 eyes, 0.1%-0.3% eye drops, 30 minutes after

`Nc1c2c(nc3ccccc13)CCCC2` [Tacrine] was tested, and the “Near 40 cm, After treatment” value (presbyopia patients [1]; Patient 1, Left eye (OS)) was 3, the “Near 40 cm, Improvement” value (presbyopia patients [1]; Patient 1, Left eye (OS)) was 2 and the “Near 66 cm, After treatment” value (presbyopia patients [1]; Patient 1, Left eye (OS)) was 2. The “Near 66 cm, Improvement” value (presbyopia patients [1]; Patient 1, Left eye (OS)) was 2, the “Near 40 cm, Improvement” value (presbyopia patients [1]; Patient 1, Right eye (OD)) was 3 and the “Near 66 cm, After treatment” value (presbyopia patients [1]; Patient 1, Right eye (OD)) was 2. The “Near 66 cm, Improvement” value (presbyopia patients [1]; Patient 1, Right eye (OD)) was 2, the “Near 40 cm, After treatment” value (presbyopia patients [1]; [5]) was 3 and the “Near 40 cm, After treatment” value (presbyopia patients [1]; Patient 2, Left eye (OS)) was 4. For the same molecule, the “Near 40 cm, Improvement” value (presbyopia patients [1]; Patient 2, Left eye (OS)) was 5, the “Near 66 cm, After treatment” value (presbyopia patients [1]; Patient 2, Left eye (OS)) was 2 and the “Near 66 cm, Improvement” value (presbyopia patients [1]; Patient 2, Left eye (OS)) was 4. For the same molecule, the “Near 40 cm, After treatment” value (presbyopia patients [1]; Patient 2, Right eye (OD)) was 4, the “Near 40 cm, Improvement” value (presbyopia patients [1]; Patient 2, Right eye (OD)) was 6 and the “Near 66 cm, After treatment” value (presbyopia patients [1]; Patient 2, Right eye (OD)) was 3. The “Near 66 cm, Improvement” value (presbyopia patients [1]; Patient 2, Right eye (OD)) was 3, the “Near 40 cm, After treatment” value (presbyopia patients [1]; Patient 3, Left eye (OS)) was 3 and the “Near 40 cm, Improvement” value (presbyopia patients [1]; Patient 3, Left eye (OS)) was 8. For the same molecule, the “Near 66 cm, After treatment” value (presbyopia patients [1]; Patient 3, Left eye (OS)) was 3, the “Near 66 cm, Improvement” value (presbyopia patients [1]; Patient 3, Left eye (OS)) was 6 and the “Near 40 cm, After treatment” value (presbyopia patients [1]; Patient 3, Right eye (OD)) was 2. The “Near 40 cm, Improvement” value (presbyopia patients [1]; Patient 3, Right eye (OD)) was 6, the “Near 66 cm, After treatment” value (presbyopia patients [1]; Patient 3, Right eye (OD)) was 2 and the “Near 66 cm, Improvement” value (presbyopia patients [1]; Patient 3, Right eye (OD)) was 5.

For `C/C=C1\[C@H]2C=C(C)C[C@]1(N)c1ccc(=O)[nH]c1C2` [Huperzine A], the N40 improved (presbyopia patients [2]; [6]) was 2.25 J, the N66 improved (presbyopia patients [2]; [6]) was 1.50 J and the “UNVA40 after treatment (Near 40, After)” value (presbyopia patients [2]; [6]) was 1.00 J. For the same molecule, the “UNVA66 after treatment (Near 66, After)” value (presbyopia patients [2]; [6]) was 2.75 J, the N40 improved (presbyopia patients [2]; [7]) was 3.05 J and 3.06 J and the N66 improved (presbyopia patients [2]; [7]) was 1.72 J. The “UNVA40 after treatment (Near 40, After)” value (presbyopia patients [2]; [7]) was 1.89 J, the “UNVA66 after treatment (Near 66, After)” value (presbyopia patients [2]; [7]) was 1.61 J and the N40 improved (presbyopia patients [2]; [8]) was 1.92 J. The N66 improved (presbyopia patients [2]; [8]) was 2.33 J, the “UNVA40 after treatment (Near 40, After)” value (presbyopia patients [2]; [8]) was 3.75 J and the “UNVA66 after treatment (Near 66, After)” value (presbyopia patients [2]; [8]) was 3.67 J. For the same molecule, the N40 improved (presbyopia patients [2]; [9]) was 3.75 J, the N66 improved (presbyopia patients [2]; [9]) was 2.00 J and the “UNVA40 after treatment (Near 40, After)” value (presbyopia patients [2]; [9]) was 2.25 J. For the same molecule, the “UNVA66 after treatment (Near 66, After)” value (presbyopia patients [2]; [9]) was 3.00 J, the N40 improved (presbyopia patients [2]; [10]) was 6.00 J and the N66 improved (presbyopia patients [2]; [10]) was 4.50 J. For the same molecule, the “UNVA40 after treatment (Near 40, After)” value (presbyopia patients [2]; [10]) was 7.00 J, the “UNVA66 after treatment (Near 66, After)” value (presbyopia patients [2]; [10]) was 4.00 J and the “N40 improved (average improvement of UNVA40)” value (presbyopia patients [2]; [11]) was 2.85 J. For the same molecule, the “N66 improved (average improvement of UNVA66)” value (presbyopia patients [2]; [11]) was 2.05 J, the “UNVA66 after treatment (Near 66, After)” value (presbyopia patients [2]; all patients, 20 patients 40 eyes, 0.1%-0.3% eye drops, 30 minutes after, Jaeger score) was 2.60 J and the “UNVA40 after treatment (Near 40, After)” value (presbyopia patients [2]; all patients, 20 patients 40 eyes, 0.1%-0.3% eye drops, 30 minutes after, Jaeger score, J1+ = 0) was 2.65 J. For the same molecule, the “effect on near vision, 41-50-year-old group compared with 51-60-year-old group” value (presbyopia patients [2]; human, in vivo) was “more significant effect on the former group”, the “UDVA increase after Huperzine A eye drops” value [3] was 0.2 and 0.1 and the “lacrimation (side effect)” value (presbyopia patients [4]) was 6%. For the same molecule, the “Near 40 cm, After treatment” value (presbyopia patients [1]; Patient 1, Left eye (OS)) was 3, the “Near 40 cm, Improvement” value (presbyopia patients [1]; Patient 1, Left eye (OS)) was 2 and the “Near 66 cm, After treatment” value (presbyopia patients [1]; Patient 1, Left eye (OS)) was 2. The “Near 66 cm, Improvement” value (presbyopia patients [1]; Patient 1, Left eye (OS)) was 2, the “Near 40 cm, Improvement” value (presbyopia patients [1]; Patient 1, Right eye (OD)) was 3 and the “Near 66 cm, After treatment” value (presbyopia patients [1]; Patient 1, Right eye (OD)) was 2. The “Near 66 cm, Improvement” value (presbyopia patients [1]; Patient 1, Right eye (OD)) was 2, the “Near 40 cm, After treatment” value (presbyopia patients [1]; [5]) was 3 and the “Near 40 cm, After treatment” value (presbyopia patients [1]; Patient 2, Left eye (OS)) was 4. For the same molecule, the “Near 40 cm, Improvement” value (presbyopia patients [1]; Patient 2, Left eye (OS)) was 5, the “Near 66 cm, After treatment” value (presbyopia patients [1]; Patient 2, Left eye (OS)) was 2 and the “Near 66 cm, Improvement” value (presbyopia patients [1]; Patient 2, Left eye (OS)) was 4. For the same molecule, the “Near 40 cm, After treatment” value (presbyopia patients [1]; Patient 2, Right eye (OD)) was 4, the “Near 40 cm, Improvement” value (presbyopia patients [1]; Patient 2, Right eye (OD)) was 6 and the “Near 66 cm, After treatment” value (presbyopia patients [1]; Patient 2, Right eye (OD)) was 3. For the same molecule, the “Near 66 cm, Improvement” value (presbyopia patients [1]; Patient 2, Right eye (OD)) was 3, the “Near 40 cm, After treatment” value (presbyopia patients [1]; Patient 3, Left eye (OS)) was 3 and the “Near 40 cm, Improvement” value (presbyopia patients [1]; Patient 3, Left eye (OS)) was 8. The “Near 66 cm, After treatment” value (presbyopia patients [1]; Patient 3, Left eye (OS)) was 3, the “Near 66 cm, Improvement” value (presbyopia patients [1]; Patient 3, Left eye (OS)) was 6 and the “Near 40 cm, After treatment” value (presbyopia patients [1]; Patient 3, Right eye (OD)) was 2. For the same molecule, the “Near 40 cm, Improvement” value (presbyopia patients [1]; Patient 3, Right eye (OD)) was 6, the “Near 66 cm, After treatment” value (presbyopia patients [1]; Patient 3, Right eye (OD)) was 2 and the “Near 66 cm, Improvement” value (presbyopia patients [1]; Patient 3, Right eye (OD)) was 5.
